The subject of data set [1] is HepG2. The experiment in a line: Cytotoxicity against human HepG2 cells assessed as inhibition of cell growth incubated for 48 hrs by MTT assay. Particulars: HepG2, 48 h. Format: functional, cell-based.
Data set [2] has as its system MDA-MB-231. The data set is described as follows: Cytotoxicity against human MDA-MB-231 cells assessed as inhibition of cell growth incubated for 48 hrs by MTT assay. Format: functional, cell-based. Particulars: MDA-MB-231, 48 h.
Data set [3] concerns A549. The experiment in a line: Cytotoxicity against cisplatin-resistant human A549 cells assessed as inhibition of cell growth incubated for 48 hrs by MTT assay. Particulars: A549, 48 h. Format: functional, cell-based.
In data set [4] the test system is A549. The data set is described as follows: Cytotoxicity against human A549 cells assessed as inhibition of cell growth incubated for 48 hrs by MTT assay. Format: functional, cell-based. Particulars: A549, 48 h.
Data set [5] has as its system MCF7. The data set is described as follows: Cytotoxicity against human MCF7 cells assessed as inhibition of cell growth incubated for 48 hrs by MTT assay. Format: functional, cell-based. Particulars: MCF7, 48 h.
The subject of data set [6] is Huh-7. The data set is described as follows: Cytotoxicity against human Huh-7 cells assessed as inhibition of cell growth incubated for 48 hrs by MTT assay. Format: functional, cell-based. Particulars: Huh-7, 48 h.
Data set [7] is described as follows: Selectivity index, ratio of IC50 for human HL7702 cells to IC50 for human Huh-7 cells. It counts as toxicity. Particulars: HL7702 cells and Huh-7 cells, read-out: Ratio IC50.
In data set [8] the test system is L02. The data set is described as follows: Cytotoxicity against human HL7702 cells assessed as inhibition of cell growth measured after 24 hrs by MTT assay. It counts as cell-based. Particulars: L02, 24 h.
Data set [9] is described as follows: Selectivity index, ratio of IC50 for human HL7702 cells to IC50 for human HepG2 cells. It counts as toxicity. Particulars: HL7702 cells and HepG2 cells, read-out: Ratio IC50.
Data set [10] can be described thus: Antimetastatic activity against human HCC cells xenografted in BALB/c mouse assessed as reduction lung metastatic nodules at 5 mg/kg, iv administered once every 2 days for 14 days. Format: functional. Particulars: 336 h, time 14 day.
Data set [11] in a line: Resistance factor, ratio of IC50 for cisplatin-resistant human A549 cells to IC50 for human A549 cells. Format: functional.
A short description of data set [12]: Antitumor activity against human HCC cells xenografted in BALB/c mouse assessed as inhibition of tumor weight at 5 mg/kg, iv administered once daily for 7 days. It counts as functional. Particulars: 168 h, time 7 day.
The subject of data set [13] is Huh-7. The experiment in a line: Cytotoxicity against human Huh-7 cells assessed as inhibition of cell growth measured after 24 hrs by MTT assay. Format: functional, cell-based. Particulars: Huh-7, 24 h.

`NCCCCNCCCCN1C(=O)c2cccc3c(NC(=O)CN)ccc(c23)C1=O`: the IC50 in data set [1] is over 30 µM; in data set [2], over 30 µM; in [3] it was over 30 µM; in data set [4] it was over 30 µM; in data set [5], over 30 µM; in data set [6], 22.9 µM.
Take `CCCNCCCN1C(=O)c2cccc3cc(NC(=O)CN)cc(c23)C1=O`: the IC50 was over 30 µM in data set [1]; over 30 µM in data set [2]; over 30 µM in [3]; over 30 µM in [4]; over 30 µM in [5]; 10.1 µM in data set [6].
Turning to `NCCCCNCCCCN1C(=O)c2cccc3cc(NC(=O)CN)cc(c23)C1=O`, the IC50 in [1] is over 30 µM; in data set [2] it was over 30 µM; in data set [3], over 30 µM; in [4], over 30 µM; in [5] it was over 30 µM; in [6], 28.7 µM.
For the compound `CCCNCCCNCCCNCCCN1C(=O)c2cccc3cc(NC(=O)CN)cc(c23)C1=O`, the IC50 in data set [1] was over 30 µM; in [2], over 30 µM; in [3], over 30 µM; in [4], over 30 µM; in data set [5] it was over 30 µM; in [6], 14.9 µM.
Turning to `NCCCCNCCCN1C(=O)c2cccc3cc(NC(=O)CN)cc(c23)C1=O`, the IC50 in data set [1], in data set [2], in [3], in data set [4], in data set [5] and in data set [6] was over 30 µM throughout.
For the compound `CCCNCCCNCCCNCCCN1C(=O)c2cccc3c(NC(=O)CN)ccc(c23)C1=O`, the IC50 in data set [1] is over 30 µM; in data set [2], over 30 µM; in data set [3], over 30 µM; in data set [4], over 30 µM; in data set [5], over 30 µM; in data set [6], 5.39 µM.
As to `CN(C)CCN1C(=O)c2cccc3cc(N)cc(c23)C1=O` [AMONAFIDE], the figures for the selectivity ratio in [7] and in data set [9] were 1.36 and 1.23, respectively. Besides, the IC50 in data set [2] amounted to 15.2 µM; in data set [8] it was 11.6 µM; in data set [3], 9.56 µM; in data set [4], 23.5 µM; in data set [5] it was 10.9 µM; in data set [6] it was 8.52 µM. In data set [13], the IC50 stood at 8.52 µM. For the same compound, the inhibition in vivo at 5 mg/kg in [10] was 55.8%; in [12] it was 46.9%. In addition, the “Ratio IC50” value in [11] turned out to be 0.41.
`CN(C)CCN1C(=O)c2cccc3cc(NC(=O)CN)cc(c23)C1=O`: the IC50 in data set [1] was over 30 µM; in data set [2], over 30 µM; in [3] it was over 30 µM; in [4], over 30 µM; in [5], over 30 µM; in data set [6], 12.7 µM.
For `CCCNCCCNCCCN1C(=O)c2cccc3cc(NC(=O)CN)cc(c23)C1=O`, the IC50 was over 30 µM in [1]; over 30 µM in data set [2]; over 30 µM in data set [3]; over 30 µM in data set [4]; over 30 µM in data set [5]; 7.54 µM in [6].

These data come from ChEMBL document CHEMBL4842322, “A naphthalimide-polyamine conjugate preferentially accumulates in hepatic carcinoma metastases as a lysosome-targeted antimetastatic agent” (Eur J Med Chem, 2021).
